Holding throughout (format): cell-based
The subject of assay [1] is primary human mesenchymal stem cells (hMSCs). The assay is described as follows: Induction of chondrogenesis in hMSCs (chondrogenic nodules, Rhodamine B/Nile Red). To be noted: 6 days; for EC50: concentration required to induce 50% levels of chondrogenesis vs TGF-β3, read-out: Conc (nM) of 50% TGF-β3 activity; for Emax: relative to TGF-β3 (10 ng/mL) positive control, read-out: Max. Activity as % TGF-β3 activity. The source says:
Representative compounds were screened using primary human mesenchymal stem cells (hMSCs) to determine their ability to induce chondrogenesis (process by which cartilage is developed).
Human Mesenchymal Stem Cell Culture: Primary human mesenchymal stem cells (hMSCs) were purchased from Lonza (Walkersville, Md.) and expanded in Mesenchymal Stem Cell Growth Media (Lonza). Cells between passage 3 and 6 were used for the experiments.
Number of nodules in each well was normalized to the average of 3 DMSO treated wells on the same plate using Excel (Microsoft Inc.). The normalized averages (fold change over DMSO) of 3 replicate wells for each compound concentration were calculated. Due to solubility limitations of some of the compounds, curve fitting was incomplete leading to inaccurate EC50 determinations.
Using TGF-β3 as a positive control, the concentration of representative compounds required to induce 50% levels of chondrogenesis is reported. In addition, the maximum activity of each compound and the respective dose that each compound reached maximum chondrogenesis activity is reported.

Assay [2] concerns Wnt activity (Sp5-Luc reporter, SW480 colon carcinoma cells). The assay is described as follows: Screening assay for Wnt activity: Sp5-Luc reporter gene assay in SW480 colon carcinoma cells. Particulars: Homo sapiens; Sp5-Luc reporter, SW480 cells, overnight incubation. The source says: The screening assay for Wnt activity is described as follows. Reporter cell lines can be generated by stably transducing cancer cell lines (e.g., colon cancer) or primary cells (e.g., IEC-6 intestinal cells) with a lentiviral construct that includes a Wnt-responsive promoter driving expression of the firefly luciferase gene.
SW480 colon carcinoma cells were transduced with a lentiviral vector expressing luciferase with a human Sp5 promoter consisting of a sequence of eight TCF/LEF binding sites. SW480 cells stably expressing the Sp5-Luc reporter gene and a hygromycin resistance gene were selected by treatment with 150 μg/mL of hygromycin for 7 days. These stably transduced SW480 cells were expanded in cell culture and used for all further screening activities. […] For Sp5-Luc reporter gene assays, the cells were plated at 4,000 cells/well in 384-well plates with medium containing 1% fetal bovine serum and incubated overnight at 37° C. and 5% CO2. Following incubation, 20 μl of BrightGlo luminescence reagent (Promega) was added to each well of the 384-well assay plates. The plates were placed on an orbital shaker for 2 min and then luminescence was quantified using the Envision (Perkin Elmer) plate reader. Readings were normalized to DMSO only treated cells, and normalized activities were utilized for EC50 calculations using the dose-response log (inhibitor) vs. response-variable slope (four parameters) nonlinear regression feature available in GraphPad Prism 5.0 (or Dotmatics).

Another assay relates to SW480 colon cancer cells. The assay is described as follows: Cell viability assay (CellTiter-Blue) in SW480 colon cancer cells. To be noted: Homo sapiens, 96 h; SW480 cell viability, four days. On the procedure: Representative compounds were screened using the following assay procedure to assess the effect on cell viability as described below.
Approximately 2×10^3 SW480 colon cancer cells were seeded into each well and allowed to incubate in the presence or absence of compound for four days at 37° C./5% CO2. Eight replicates of DMSO-treated cells served as controls and cells treated with compound were performed in duplicate.
After incubation, 20 μL of CellTiter-Blue (Promega) was added to each well allowed to incubate for approximately 3 hours. This reagent was a buffered solution which contains resazurin, metabolically active cells were able to reduce rezarurin (blue) into resorufin (pink) which was highly fluorescent. This measured fluorescence was used as a readout for cell viability.

In the next assay the test system is IL-6 (THP-1 cells). In words: IL-6 inhibition in LPS-stimulated THP-1 monocytes (HTRF). To be noted: Homo sapiens; for EC50: IL-6, THP-1 cells, LPS 500 ng/mL, 22 hours. The protocol: Compound Screening: THP-1 cells were cultured in basal media with 1% FBS for 24 hours before the start of the assay. […] THP-1 cells were plated at 5000 cells/well in the 384-well plates and incubated at 37° C. for 2 h. 500 ng/mL of LPS was added after 2 hours and cells were incubated for another 22 hours at 37° C. Plates were spun in a centrifuge for 1 minute at […] and a mixture of anti-IL6 XL665, and anti-IL6 Cryptate diluted in reconstitution buffer (Cisbio Inc.) was added to each well. Following incubation for 3 hrs at room temperature, Homogeneous Time-Resolved Fluorescence (HTRF) was measured using the Envision (Perkin Elmer) at 665 nm and […]. The ratio of fluorescence at 665 nm to 620 nm was used as a readout for IL6 quantification. All samples were processed in duplicate. Readings were normalized to DMSO treated cells and normalized activities were utilized for EC50 calculations using the dose-response log (inhibitor) vs. response-variable slope (four parameters) nonlinear regression feature available in GraphPad Prism 5.0 (or Dotmatics).
A general note: TR-FRET usually uses a lanthanide donor and a delayed reading to cut background.

Assay [3] relates to primary human fibroblasts derived from IPF patients (LL29 cells) treated with TGF-β1. In words: Inhibition of the fibrotic process: αSMA staining in TGF-β1 treated LL29 fibroblasts. To be noted: Fibroblast, 96 h, % αSMA positive LL29 cells, TGF-β1 20 ng/mL, 4 days. On the procedure: Representative compounds were screened using primary human fibroblasts (derived from IPF patients) treated with TGF-β1 to determine their ability to inhibit the fibrotic process.
LL29 cells are plated at 1,500 cells/well in 80 μL/well F12 medium supplemented with 1% Fetal Bovine Serum. […] Wells treated with TGF-β1 and containing DMSO were used as controls. […] Following incubation for 4 days, SYTOX green nucleic acid stain (Life Technologies [Thermo Fisher Scientific]) was added to the wells at a final concentration of 1 μM and incubated at room temperature for 30 min.

We go through 12 molecules from patent publication US10206908B2, “3-(1H-pyrrolo[3,2-C]pyridin-2-YL)-1H-pyrazolo[3,4-C]pyridines and therapeutic uses thereof” (Samumed, LLC, priority 2015, dated 2019).

Bounds are passed on as bounds.

Take `CCC(=O)Nc1cncc(-c2cc3c(-c4cc5c(-c6cccc(F)c6)nccc5[nH]4)n[nH]c3cn2)c1` [Compound 1, N-(5-(3-(4-(3-Fluorophenyl)-1H-pyrrolo[3,2-c]pyridin-2-yl)-1H-pyrazolo[3,4-c]pyridin-5-yl)pyridin-3-yl)propionamide]: the EC50 in assay [1] was 30 nM; in assay [2], 305 nM; in the assay on SW480 colon cancer cells, 931 nM; in the assay on IL-6 (THP-1 cells), 733 nM; in assay [3] it was 235 nM. In addition, the Emax in assay [1] was 51%.

Take `Fc1cccc(-c2nccc3[nH]c(-c4n[nH]c5cnc(-c6cccnc6)cc45)cc23)c1` [Compound 4, 3-(4-(3-Fluorophenyl)-1H-pyrrolo[3,2-c]pyridin-2-yl)-5-(pyridin-3-yl)-1H-pyrazolo[3,4-c]pyridine]: the EC50 in assay [1] stood at 300 nM; in assay [2] it was 500 nM; with SW480 colon cancer cells, 867 nM; in the assay with IL-6 (THP-1 cells) it was 649 nM; in assay [3], 20 nM. In addition, the Emax in assay [1] came to 114%.

On to `CN(C)Cc1cncc(-c2cc3c(-c4cc5c(-c6cccc(F)c6)nccc5[nH]4)n[nH]c3cn2)c1` [Compound 13, 1-(5-(3-(4-(3-Fluorophenyl)-1H-pyrrolo[3,2-c]pyridin-2-yl)-1H-pyrazolo[3,4-c]pyridin-5-yl)pyridin-3-yl)-N,N-dimethylmethanamine], for which the EC50 in assay [1] was 30 nM; in assay [2], 1850 nM; in the assay on SW480 colon cancer cells, 1730 nM; in the assay with IL-6 (THP-1 cells) it was 425 nM; in assay [3] it was 9 nM. For the same molecule, the Emax in assay [1] is 60%.

Consider `CC(C)CC(=O)Nc1cncc(-c2cc3c(-c4cc5c(-c6ccc(F)cc6)nccc5[nH]4)n[nH]c3cn2)c1` [Compound 30, N-(5-(3-(4-(4-Fluorophenyl)-1H-pyrrolo[3,2-c]pyridin-2-yl)-1H-pyrazolo[3,4-c]pyridin-5-yl)pyridin-3-yl)-3-methylbutanamide], for which the EC50 in assay [1] was determined as 900 nM; in assay [2], 289 nM; in the assay with SW480 colon cancer cells, 298 nM; with IL-6 (THP-1 cells), 669 nM; in assay [3], 356 nM. Moreover, in assay [1], the Emax came to 71%.

Regarding `Cc1ccncc1-c1cc2c(-c3cc4c(-c5ccc(F)cc5)nccc4[nH]3)n[nH]c2cn1` [Compound 33, 3-(4-(4-Fluorophenyl)-1H-pyrrolo[3,2-c]pyridin-2-yl)-5-(4-methylpyridin-3-yl)-1H-pyrazolo[3,4-c]pyridine], the Emax in assay [1] was determined as 24%. Besides, the EC50 in assay [2] is 595 nM; in the assay on SW480 colon cancer cells, 716 nM; in the assay on IL-6 (THP-1 cells) it was 489 nM; in assay [3], 266 nM.

As for `O=C(Nc1cncc(-c2cc3c(-c4cc5c(-c6ccc(F)cc6)nccc5[nH]4)n[nH]c3cn2)c1)C1CC1` [Compound 48, N-(5-(3-(4-(4-Fluorophenyl)-1H-pyrrolo[3,2-c]pyridin-2-yl)-1H-pyrazolo[3,4-c]pyridin-5-yl)pyridin-3-yl)cyclopropanecarboxamide], the EC50 came out at 30 nM in assay [1]; 844 nM in assay [2]; 666 nM in the assay on SW480 colon cancer cells; 1050 nM with IL-6 (THP-1 cells); 404 nM in assay [3]. For the same molecule, the Emax in assay [1] worked out at 96%.

As for `Fc1ccc(-c2nccc3[nH]c(-c4n[nH]c5cnc(-c6cncc(CN7CCC(F)(F)C7)c6)cc45)cc23)cc1` [Compound 54, 5-(5-((3,3-Difluoropyrrolidin-1-yl)methyl)pyridin-3-yl)-3-(4-(4-fluorophenyl)-1H-pyrrolo[3,2-c]pyridin-2-yl)-1H-pyrazolo[3,4-c]pyridine], the EC50 amounted to 10 nM in assay [1]; 291 nM in assay [2]; 1100 nM in the assay with SW480 colon cancer cells; 468 nM in the assay with IL-6 (THP-1 cells); 28 nM in assay [3]. Moreover, in assay [1], the Emax came out at 61%.

For `Nc1cncc(-c2cc3c(-c4cc5c(-c6ccccc6F)nccc5[nH]4)n[nH]c3cn2)c1` [Compound 59, 5-(3-(4-(2-Fluorophenyl)-1H-pyrrolo[3,2-c]pyridin-2-yl)-1H-pyrazolo[3,4-c]pyridin-5-yl)pyridin-3-amine], the EC50 came to 10 nM in assay [1]; 224 nM in assay [2]; 940 nM with SW480 colon cancer cells; 119 nM in the assay on IL-6 (THP-1 cells); 5400 nM in assay [3]. In assay [1], the Emax is 117%.

Regarding `Fc1ccccc1-c1nccc2[nH]c(-c3n[nH]c4cnc(-c5cncc(CN6CCCC6)c5)cc34)cc12` [Compound 70, 3-(4-(2-Fluorophenyl)-1H-pyrrolo[3,2-c]pyridin-2-yl)-5-(5-(pyrrolidin-1-ylmethyl)pyridin-3-yl)-1H-pyrazolo[3,4-c]pyridine], the EC50 was 10 nM in assay [1]; 1980 nM in assay [2]; 3160 nM in the assay on SW480 colon cancer cells; 2320 nM in the assay on IL-6 (THP-1 cells); 1250 nM in assay [3]. Moreover, in assay [1], the Emax turned out to be 69%.

Consider `CC(C)(C)CC(=O)Nc1cncc(-c2cc3c(-c4cc5c(-c6ccccc6F)nccc5[nH]4)n[nH]c3cn2)c1` [Compound 72, N-(5-(3-(4-(2-fluorophenyl)-1H-pyrrolo[3,2-c]pyridin-2-yl)-1H-pyrazolo[3,4-c]pyridin-5-yl)pyridin-3-yl)-3,3-dimethylbutanamide], for which the EC50 in assay [1] was determined as 30 nM; in assay [2], 1030 nM; with SW480 colon cancer cells, 1280 nM; in the assay with IL-6 (THP-1 cells), 1090 nM; in assay [3] it was 932 nM. For the same molecule, the Emax in assay [1] is 54%.

Turning to `O=C(Nc1cncc(-c2cc3c(-c4cc5c(-c6ccccc6F)nccc5[nH]4)n[nH]c3cn2)c1)C1CCC1` [Compound 77, N-(5-(3-(4-(2-Fluorophenyl)-1H-pyrrolo[3,2-c]pyridin-2-yl)-1H-pyrazolo[3,4-c]pyridin-5-yl)pyridin-3-yl)cyclobutanecarboxamide], in assay [1], the Emax was 44%. For the same molecule, the EC50 in assay [2] was determined as 1250 nM; with SW480 colon cancer cells, 4280 nM; in the assay on IL-6 (THP-1 cells), 2800 nM; in assay [3] it was 2820 nM.

The inhibition is the percentage by which the read-out fell short of the control. Consider `Fc1ccccc1-c1nccc2[nH]c(-c3n[nH]c4cnc(-c5cncnc5)cc34)cc12` [Compound 83, 3-(4-(2-Fluorophenyl)-1H-pyrrolo[3,2-c]pyridin-2-yl)-5-(pyrimidin-5-yl)-1H-pyrazolo[3,4-c]pyridine], for which the Emax in assay [1] is 47%. For the same molecule, the EC50 is 2140 nM in assay [2], 1600 nM in the assay on SW480 colon cancer cells, above 10000 nM with IL-6 (THP-1 cells) and 1040 nM in assay [3]. For the same molecule, the inhibition at 10 µM in the assay on IL-6 (THP-1 cells) (THP-1, read-out: percent inhibition at 10 μM) came to 27.3%.
